Measurements: the OligoGym collection
Values joined by “and” are separate entries in the source; they are usually repeats but may differ in a detail not shown here. Equal entries are not always repeated. After the bases stand the sugars from the 5' end (letter, count) and the backbone: PS all phosphorothioate, else s phosphorothioate and o phosphodiester by linkage. Methylation of C is not given here. e = 2'-O-(2-methoxyethyl) (MOE); k = constrained ethyl (cEt); d = 2'-deoxy (DNA)

Biological target: APOL1
Settings: ASO

Question: Which target mRNA inhibition (A431, 0.0625 µM) does the source give for AACATGAAGTGAGCCT (sugars k4 d9 k3, PS) here?
Answer: Its target mRNA inhibition is 20%.

Question: What about the target mRNA inhibition (A431, 0.25 µM) of the same sequence?
Answer: Its target mRNA inhibition is 49%.

Question: And the target mRNA inhibition (A431, 1 µM)?
Answer: The target mRNA inhibition was 73%.

Question: How did the target mRNA inhibition (A431, 0.0156 µM) turn out when “AACGCAATGCTGACTT (sugars k3 d4 k3 e1 d5, PS)” was run?
Answer: The target mRNA inhibition was 3%.

Question: And the target mRNA inhibition (A431, 0.0625 µM)?
Answer: Its target mRNA inhibition is 24%.

Question: And the target mRNA inhibition (A431, 0.25 µM)?
Answer: The target mRNA inhibition was 54%.

Question: What about the target mRNA inhibition (A431, 1 µM) of the same sequence?
Answer: Its target mRNA inhibition is 80%.

Question: What about the target mRNA inhibition (A431, 2 µM) of the same sequence?
Answer: The target mRNA inhibition was 91%.

Question: How did the target mRNA inhibition (A431, 2 µM) turn out when “AAGATTGGCTCTGGCT (sugars k2 d4 e4 k2 d4, PS)” was run?
Answer: Its target mRNA inhibition is 55%.

Question: For “AAGCTTTAAACTCAGG (sugars kkkddddkekeddddd, PS)”, which target mRNA inhibition (A431, 2 µM) is on record?
Answer: Its target mRNA inhibition is 84%.

Question: Which target mRNA inhibition (A431, 0.0625 µM) does the source give for AAGGAGTTGCTGAAAC (sugars k4 d9 k3, PS) here?
Answer: The target mRNA inhibition was 32%.

Question: What about the target mRNA inhibition (A431, 0.25 µM) of the same sequence?
Answer: The target mRNA inhibition was 48%.

Question: What about the target mRNA inhibition (A431, 1 µM) of the same sequence?
Answer: The target mRNA inhibition was 63%.

Question: How did the target mRNA inhibition (A431, 2 µM) turn out when “AAGTATTGCCAGCTAA (sugars k3 d5 k3 d5, PS)” was run?
Answer: Its target mRNA inhibition is 90%.

Question: “AAGTATTGCCAGCTAA (sugars kddddkekekeddddd, PS)” was tested. Which target mRNA inhibition (A431, 2 µM) did it give?
Answer: The target mRNA inhibition was 25%.

Question: With “AAGTATTGCCAGCTAA (sugars kkddddkdkdkddddd, PS)” as the sequence, how does the target mRNA inhibition (A431, 2 µM) read?
Answer: Its target mRNA inhibition is 70%.

Question: With “AAGTATTGCCAGCTAA (sugars kkddddkekekddddd, PS)” as the sequence, how does the target mRNA inhibition (A431, 2 µM) read?
Answer: The target mRNA inhibition was 62%.

Question: “AAGTATTGCCAGCTAA (sugars kkddddkekekkdddd, PS)” was tested. Which target mRNA inhibition (A431, 2 µM) did it give?
Answer: The target mRNA inhibition was 27%.

Question: How did the target mRNA inhibition (A431, 2 µM) turn out when “AAGTATTGCCAGCTAA (sugars kkkddddkdkdkdddd, PS)” was run?
Answer: The target mRNA inhibition was 54%.

Question: Which target mRNA inhibition (A431, 2 µM) does the source give for “AAGTATTGCCAGCTAA (sugars kkkddddkekeddddd, PS)” here?
Answer: Its target mRNA inhibition is 63%.

Question: How did the target mRNA inhibition (A431, 2 µM) turn out when “AAGTATTGCCAGCTAA (sugars kkkddddkekekdddd, PS)” was run?
Answer: Its target mRNA inhibition is 47%.

Question: For “AATTATGGAATTGCAG (sugars kddddkekekeddddd, PS)”, which target mRNA inhibition (A431, 2 µM) is on record?
Answer: Its target mRNA inhibition is 55%.

Question: With “AATTATGGAATTGCAG (sugars kkddddkekekkdddd, PS)” as the sequence, how does the target mRNA inhibition (A431, 2 µM) read?
Answer: The target mRNA inhibition was 35%.

Question: With “AATTCTATTAGAGGGC (sugars k2 d4 e3 k2 d5, PS)” as the sequence, how does the target mRNA inhibition (A431, 2 µM) read?
Answer: The target mRNA inhibition was 73%.

Question: For “AATTCTATTAGAGGGC (sugars kkkddddkekeddddd, PS)”, which target mRNA inhibition (A431, 2 µM) is on record?
Answer: Its target mRNA inhibition is 82%.

Question: With “ACACATCATTGGGTTA (sugars k3 d4 k3 e1 d5, PS)” as the sequence, how does the target mRNA inhibition (A431, 2 µM) read?
Answer: Its target mRNA inhibition is 59%.

Question: How did the target mRNA inhibition (A431, 2 µM) turn out when “ACACATCATTGGGTTA (sugars kddddkekekeddddd, PS)” was run?
Answer: The target mRNA inhibition was 36%.

Question: Which target mRNA inhibition (A431, 2 µM) does the source give for “ACACATCATTGGGTTA (sugars kkdddddkekeddddd, PS)” here?
Answer: Its target mRNA inhibition is 72%.

Question: Which target mRNA inhibition (A431, 2 µM) does the source give for “ACACATCATTGGGTTA (sugars kkddddkekekddddd, PS)” here?
Answer: The target mRNA inhibition was 50%.

Question: For “ACATCATTGGGTTATG (sugars kkddddkekekkdddd, PS)”, which target mRNA inhibition (A431, 2 µM) is on record?
Answer: The target mRNA inhibition was 70%.

Question: “ACGCAATGCTGACTTG (sugars k2 d4 e3 k2 d5, PS)” was tested. Which target mRNA inhibition (A431, 2 µM) did it give?
Answer: Its target mRNA inhibition is 87%.

Question: How did the target mRNA inhibition (A431, 0.0625 µM) turn out when “ACGCAATGCTGACTTG (sugars k3 d5 k3 d5, PS)” was run?
Answer: Its target mRNA inhibition is 54%.

Question: What about the target mRNA inhibition (A431, 0.25 µM) of the same sequence?
Answer: Its target mRNA inhibition is 83%.

Question: What about the target mRNA inhibition (A431, 1 µM) of the same sequence?
Answer: Its target mRNA inhibition is 94%.

Question: What about the target mRNA inhibition (A431, 2 µM) of the same sequence?
Answer: Its target mRNA inhibition is 94%.

Question: “ACGCAATGCTGACTTG (sugars kddddkekekeddddd, PS)” was tested. Which target mRNA inhibition (A431, 2 µM) did it give?
Answer: The target mRNA inhibition was 72%.

Question: How did the target mRNA inhibition (A431, 0.0625 µM) turn out when ACTGAGGGTATATGAA (sugars k4 d9 k3, PS) was run?
Answer: The target mRNA inhibition was 22%.

Question: What about the target mRNA inhibition (A431, 0.25 µM) of the same sequence?
Answer: Its target mRNA inhibition is 40%.

Question: And the target mRNA inhibition (A431, 1 µM)?
Answer: The target mRNA inhibition was 58%.

Question: Which results are given for AGATTGGCTCAGTGAC (sugars k4 d9 k3, PS)?
Answer: target mRNA inhibition (A431, 0.0625 µM): 44% and 27%; target mRNA inhibition (A431, 0.25 µM): 70% and 52%; target mRNA inhibition (A431, 1 µM): 87% and 76%

Question: “AGATTGGCTCTGGCTC (sugars kdddddkekekddddd, PS)” was tested. Which target mRNA inhibition (A431, 2 µM) did it give?
Answer: The target mRNA inhibition was 40%.

Question: Which target mRNA inhibition (A431, 2 µM) does the source give for “AGATTGGCTCTGGCTC (sugars kkddddkekekkdddd, PS)” here?
Answer: Its target mRNA inhibition is 18%.

Question: Which results are given for AGCAGCCACGAATCCG (sugars k4 d9 k3, PS)?
Answer: target mRNA inhibition (A431, 0.0625 µM): 40%; target mRNA inhibition (A431, 0.25 µM): 66%; target mRNA inhibition (A431, 1 µM): 63%

Question: For “AGCTTTAAACTCAGGT (sugars k3 d5 k3 d5, PS)”, which target mRNA inhibition (A431, 2 µM) is on record?
Answer: Its target mRNA inhibition is 68%.

Question: Which target mRNA inhibition (A431, 2 µM) does the source give for “AGCTTTAAACTCAGGT (sugars kekddddeekkddddd, PS)” here?
Answer: The target mRNA inhibition was 82%.

Question: How did the target mRNA inhibition (A431, 2 µM) turn out when “AGCTTTAAACTCAGGT (sugars kkkddddkekeddddd, PS)” was run?
Answer: Its target mRNA inhibition is 85%.

Question: For “AGTATTGTTTTTGTGG (sugars kkdddddkekeddddd, PS)”, which target mRNA inhibition (A431, 2 µM) is on record?
Answer: Its target mRNA inhibition is 91%.

Question: Which target mRNA inhibition (A431, 2 µM) does the source give for “AGTATTGTTTTTGTGG (sugars kkddddkekekddddd, PS)” here?
Answer: The target mRNA inhibition was 75%.

Question: Which target mRNA inhibition (A431, 2 µM) does the source give for “AGTATTGTTTTTGTGG (sugars kkkddddkekekdddd, PS)” here?
Answer: The target mRNA inhibition was 55%.

Question: Which results are given for AGTCATTAGTGCTATA (sugars k4 d9 k3, PS)?
Answer: target mRNA inhibition (A431, 0.0625 µM): 57%; target mRNA inhibition (A431, 0.25 µM): 78%; target mRNA inhibition (A431, 1 µM): 88%

Question: Which results are given for AGTTTCATATTCACCC (sugars k4 d9 k3, PS)?
Answer: target mRNA inhibition (A431, 0.0625 µM): 58%; target mRNA inhibition (A431, 0.25 µM): 83%; target mRNA inhibition (A431, 1 µM): 94%

Question: For “AGTTTTGTAAGTGCAA (sugars k2 d4 e4 k2 d4, PS)”, which target mRNA inhibition (A431, 0.0156 µM) is on record?
Answer: The target mRNA inhibition was 4%.

Question: What about the target mRNA inhibition (A431, 0.0625 µM) of the same sequence?
Answer: Its target mRNA inhibition is 23%.

Question: What about the target mRNA inhibition (A431, 0.25 µM) of the same sequence?
Answer: The target mRNA inhibition was 80%.

Question: And the target mRNA inhibition (A431, 1 µM)?
Answer: The target mRNA inhibition was 91%.

Question: And the target mRNA inhibition (A431, 2 µM)?
Answer: Its target mRNA inhibition is 94%.
